Experimental data taken from ChEMBL document CHEMBL5096234, “Discovery, Optimization, and Evaluation of Selective CDK4/6 Inhibitors for the Treatment of Breast Cancer” (J Med Chem, 2022).
≈ marks a conversion by molar mass, not a printed value. Calls of active or inactive are those of the source. The rule behind the calls is not given here.

Columns and labels:
[1] = Inhibition of CDK1/cyclin B (unknown origin) in presence of ATP by time resolved-FRET assay; set-up: species or system Homo sapiens
CDK4/Cyclin D3 = CDK4/Cyclin D3 (Homo sapiens, UniProt P11802); assay: Inhibition of CDK4/cyclin-D3 (unknown origin) in presence of ATP by time resolved-FRET assay; format: protein-complex assay
CDK9/cyclin T1 = CDK9/cyclin T1 (Homo sapiens, UniProt P50750); assay: Inhibition of CDK9/Cyclin T1 (unknown origin) in presence of ATP by time resolved-FRET assay; format: protein-complex assay
MCF7 [2] = assay: Antiproliferative activity against human MCF7 cells assessed as cell growth inhibition incubated for 72 hrs by CCK-8 assay; format: functional
T47D [3] = assay: Antiproliferative activity against human T47D cells assessed as cell growth inhibition incubated for 72 hrs by CCK-8 assay; format: functional
MCF-10A = assay: Antiproliferative activity against human MCF-10A cells assessed as cell growth inhibition incubated for 72 hrs by CCK-8 assay; format: functional
MCF7 [4] = assay: Antiproliferative activity against human MCF7 cells assessed as inhibition of cell growth at 1.5 to 6 uM incubated for 5 days by CCK-8 assay; format: functional, cell-based; conditions: dose 1.5-6 µM, time 5.0 day
T47D [5] = assay: Antiproliferative activity against human T47D cells assessed as inhibition of cell growth at 1 to 4 uM incubated for 5 days by CCK-8 assay; format: functional, cell-based; conditions: dose 1-4 µM, time 5.0 day
T47D [6] = assay: Inhibition of clone formation in human T47D cells at 1 to 8 uM by crystal voilet staining based analysis; format: functional, cell-based; conditions: dose 1-8 µM, time 2.0 weeks
MCF7 [7] = assay: Induction of cell cycle arrest in human MCF7 cells assessed as accumulation of cells at G1 phase at 6 uM incubated for 24 hrs by propidium iodide staining based flow cytometry analysis (reference value: 57.38%); format: functional
T47D [8] = assay: Induction of cell cycle arrest in human T47D cells assessed as accumulation of cells at G1 phase at 2 uM incubated for 24 hrs by propidium iodide staining based flow cytometry analysis (reference value: 69.55 %); format: functional
T47D [9] = assay: Induction of cell cycle arrest in human T47D cells assessed as accumulation of cells at G1 phase at 1 uM incubated for 24 hrs by propidium iodide staining based flow cytometry analysis (reference value: 69.55 %); format: functional
T47D [10] = assay: Induction of cell cycle arrest in human T47D cells assessed as accumulation of cells at G2 phase at 2 uM incubated for 24 hrs by propidium iodide staining based flow cytometry analysis (reference value: 16.57%); format: functional
T47D [11] = assay: Induction of cell cycle arrest in human T47D cells assessed as accumulation of cells at G2 phase at 4 uM incubated for 24 hrs by propidium iodide staining based flow cytometry analysis (reference value: 16.57%); format: functional
[12] = target: T1, Retinoblastoma-associated protein (Homo sapiens) (UniProt P06400); assay: Inhibition of RB phosphorylation in human T47D cells at 1 to 4 uM incubated for 24 hrs by Western blot analysis; format: cell-based; conditions: dose 1-4 µM
T1 sequence (whole entry): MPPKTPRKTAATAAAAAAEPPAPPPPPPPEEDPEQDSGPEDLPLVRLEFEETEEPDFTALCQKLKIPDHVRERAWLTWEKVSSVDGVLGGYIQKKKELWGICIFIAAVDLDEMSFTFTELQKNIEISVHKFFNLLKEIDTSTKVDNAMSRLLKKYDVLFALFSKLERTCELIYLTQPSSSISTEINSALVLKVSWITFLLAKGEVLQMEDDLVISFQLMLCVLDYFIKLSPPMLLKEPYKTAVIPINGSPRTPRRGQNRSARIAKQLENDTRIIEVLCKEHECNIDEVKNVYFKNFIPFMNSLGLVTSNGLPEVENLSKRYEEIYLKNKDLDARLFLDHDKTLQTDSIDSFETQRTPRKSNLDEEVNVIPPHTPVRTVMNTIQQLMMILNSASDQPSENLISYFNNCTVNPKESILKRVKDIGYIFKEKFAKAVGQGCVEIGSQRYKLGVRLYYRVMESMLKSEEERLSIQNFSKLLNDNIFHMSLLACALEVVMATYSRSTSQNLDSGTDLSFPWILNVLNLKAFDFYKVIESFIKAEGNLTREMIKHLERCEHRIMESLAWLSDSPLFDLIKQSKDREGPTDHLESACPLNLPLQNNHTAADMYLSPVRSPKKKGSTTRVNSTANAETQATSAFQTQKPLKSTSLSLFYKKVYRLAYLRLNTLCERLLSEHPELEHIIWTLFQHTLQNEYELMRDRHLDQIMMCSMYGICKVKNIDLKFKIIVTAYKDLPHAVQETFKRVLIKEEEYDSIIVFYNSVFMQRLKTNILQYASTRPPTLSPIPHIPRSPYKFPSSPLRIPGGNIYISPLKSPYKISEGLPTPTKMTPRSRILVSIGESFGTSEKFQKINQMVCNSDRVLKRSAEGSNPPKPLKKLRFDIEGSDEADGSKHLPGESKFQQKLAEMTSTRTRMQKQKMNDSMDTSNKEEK

[13] = Thermodynamic solubility of the compound incubated for 24 hrs under shaking condition by LC-MS/MS analysis; format: physicochemical; conditions: read-out: Therm_solubility
[14] = […] stability in human liver microsomes assessed as half life preincubated for 10 mins followed by NADPH addition by LC-MS/MS analysis; format: ADME, Microsome
[15] = […] stability in human liver microsomes assessed as intrinsic clearance preincubated for 10 mins followed by NADPH addition by LC-MS/MS analysis; format: ADME, Microsome; conditions: read-out: CLH
CYP3A4 = CYP3A4 (Homo sapiens, UniProt P08684); assay: Inhibition of CYP3A4 in human liver microsomes using testosterone as substrate at 10 uM preincubated for 5 mins followed by NADPH addition by LC-MS/MS analysis relative to control; format: ADME, Microsome; conditions: probe testosterone
[16] = AUC (0 to infinity) in Sprague-Dawley rat 1 mg/kg, iv by LC/MS/MS analysis; format: ADME, organism-based; set-up: time infinity, dose 1 mg/kg, route iv; conditions: in vivo
[17] = Tmax in Sprague-Dawley rat 1 mg/kg, iv by LC/MS/MS analysis; format: ADME, organism-based; conditions: in vivo
[18] = Half life in Sprague-Dawley rat 1 mg/kg, iv by LC/MS/MS analysis; format: ADME, organism-based; conditions: in vivo
[19] = Cmax in Sprague-Dawley rat 10 mg/kg, po by LC/MS/MS analysis; format: ADME, organism-based; set-up: dose 10 mg/kg, route po; conditions: in vivo
[20] = Half life in Sprague-Dawley rat 10 mg/kg, po by LC/MS/MS analysis; format: ADME, organism-based; conditions: in vivo
[21] = Acute toxicity in ICR mouse assessed as animal death at 5000 mg/kg, po administered as single dose and measured every 2 days for 14 days; format: organism-based; conditions: in vivo, 336 h, time 14 day
[22] = Acute toxicity in ICR mouse assessed as change in liver weight at 1000 to 5000 mg/kg, po administered as single dose and measured every 2 days for 14 days; format: organism-based; conditions: in vivo, 336 h, dose 1000-5000 mg/kg, time 14 day
[23] = Acute toxicity in ICR mouse assessed as change in spleen weight at 1000 to 5000 mg/kg, po administered as single dose and measured every 2 days for 14 days; format: organism-based; conditions: in vivo, 336 h, dose 1000-5000 mg/kg, time 14 day
[24] = Acute toxicity in ICR mouse assessed as spleen lesions at 5000 mg/kg, po administered as single dose and measured every 2 days for 14 days by H and E staining based analysis; format: organism-based; conditions: in vivo, 336 h, time 14 day

Chain of CDK9/cyclin T1 (O60563 whole entry): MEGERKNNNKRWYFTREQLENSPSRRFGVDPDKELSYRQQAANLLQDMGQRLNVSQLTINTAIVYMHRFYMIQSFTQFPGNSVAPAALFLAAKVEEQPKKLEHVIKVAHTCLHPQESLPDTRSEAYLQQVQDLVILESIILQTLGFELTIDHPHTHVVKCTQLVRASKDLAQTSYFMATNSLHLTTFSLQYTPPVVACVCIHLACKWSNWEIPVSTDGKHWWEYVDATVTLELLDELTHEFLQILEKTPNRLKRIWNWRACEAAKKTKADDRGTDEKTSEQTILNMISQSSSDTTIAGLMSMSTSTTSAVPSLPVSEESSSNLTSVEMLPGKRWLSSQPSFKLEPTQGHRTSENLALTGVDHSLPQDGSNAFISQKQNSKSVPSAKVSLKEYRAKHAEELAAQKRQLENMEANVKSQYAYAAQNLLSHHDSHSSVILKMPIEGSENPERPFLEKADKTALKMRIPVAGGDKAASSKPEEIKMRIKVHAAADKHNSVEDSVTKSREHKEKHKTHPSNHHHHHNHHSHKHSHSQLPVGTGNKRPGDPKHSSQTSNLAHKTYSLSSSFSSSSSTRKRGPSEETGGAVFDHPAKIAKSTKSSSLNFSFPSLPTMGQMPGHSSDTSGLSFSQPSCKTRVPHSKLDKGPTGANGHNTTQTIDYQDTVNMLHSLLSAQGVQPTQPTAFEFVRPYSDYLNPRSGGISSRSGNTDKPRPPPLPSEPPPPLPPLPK
Chain of CDK9/cyclin T1 (P50750 whole entry): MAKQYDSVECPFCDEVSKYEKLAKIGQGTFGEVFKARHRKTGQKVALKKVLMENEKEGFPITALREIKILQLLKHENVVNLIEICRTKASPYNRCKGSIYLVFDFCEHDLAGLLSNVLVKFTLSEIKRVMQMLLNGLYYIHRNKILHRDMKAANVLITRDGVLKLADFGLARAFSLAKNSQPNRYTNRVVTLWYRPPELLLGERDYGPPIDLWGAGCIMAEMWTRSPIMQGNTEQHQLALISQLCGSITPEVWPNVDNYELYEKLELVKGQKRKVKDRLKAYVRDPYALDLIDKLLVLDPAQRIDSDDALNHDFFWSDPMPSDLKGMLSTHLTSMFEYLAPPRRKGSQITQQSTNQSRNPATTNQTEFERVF
Chain of CDK4/Cyclin D3 (P11802 whole entry): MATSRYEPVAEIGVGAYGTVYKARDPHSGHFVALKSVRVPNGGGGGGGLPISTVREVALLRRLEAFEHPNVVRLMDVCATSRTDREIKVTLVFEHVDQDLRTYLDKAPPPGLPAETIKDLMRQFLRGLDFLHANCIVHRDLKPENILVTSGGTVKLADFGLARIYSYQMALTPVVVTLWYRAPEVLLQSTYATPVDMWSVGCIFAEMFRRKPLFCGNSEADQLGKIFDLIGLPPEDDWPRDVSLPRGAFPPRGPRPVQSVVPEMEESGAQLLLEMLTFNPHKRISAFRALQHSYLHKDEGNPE
Chain of CDK4/Cyclin D3 (P30281 whole entry, further chain): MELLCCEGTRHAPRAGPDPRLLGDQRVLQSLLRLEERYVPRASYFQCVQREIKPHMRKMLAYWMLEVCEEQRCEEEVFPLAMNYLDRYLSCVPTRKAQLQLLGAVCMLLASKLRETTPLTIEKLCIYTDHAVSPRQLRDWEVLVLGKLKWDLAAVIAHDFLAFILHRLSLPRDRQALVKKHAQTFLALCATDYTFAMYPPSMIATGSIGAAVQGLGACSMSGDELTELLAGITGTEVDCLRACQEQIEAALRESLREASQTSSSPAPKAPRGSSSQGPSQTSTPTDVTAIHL
Chain of CYP3A4 (P08684 whole entry): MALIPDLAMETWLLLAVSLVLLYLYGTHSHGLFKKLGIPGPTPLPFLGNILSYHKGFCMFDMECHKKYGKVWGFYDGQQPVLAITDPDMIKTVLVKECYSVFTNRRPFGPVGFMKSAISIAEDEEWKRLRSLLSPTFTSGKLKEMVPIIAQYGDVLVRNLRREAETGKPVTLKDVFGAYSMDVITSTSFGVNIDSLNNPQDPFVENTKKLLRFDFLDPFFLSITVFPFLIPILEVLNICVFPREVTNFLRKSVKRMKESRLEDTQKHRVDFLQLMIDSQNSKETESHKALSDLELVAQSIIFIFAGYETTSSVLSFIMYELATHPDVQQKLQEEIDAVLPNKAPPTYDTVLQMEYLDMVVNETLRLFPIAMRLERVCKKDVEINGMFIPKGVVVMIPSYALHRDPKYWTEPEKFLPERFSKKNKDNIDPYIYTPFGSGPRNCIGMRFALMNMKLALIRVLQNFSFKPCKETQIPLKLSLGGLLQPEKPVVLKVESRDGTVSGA

## CCN1CCc2cc(-c3nc(Nc4ccc(N5CCNCC5)cn4)ncc3F)ccc2C1=O
[1]
  IC50: > 10 µM
CDK4/Cyclin D3
  IC50: 0.01 µM
CDK9/cyclin T1
  IC50: 2.66 µM
MCF7 [2]
  GI50: 2.7 µM
T47D [3]
  GI50: 0.887 µM
MCF-10A
  GI50: 17.7 µM
MCF7 [4]
  inhibition: Active
T47D [5]
  inhibition: Active
T47D [6]
  inhibition: Active
MCF7 [7]
  Activity: 85.27%
T47D [8]
  Activity: 85.48%
T47D [9]
  Activity: 83.14%
T47D [10]
  Activity: 6.06%
T47D [11]
  Activity: 5.87%
[12]
  inhibition: Active
[13]
  solubility thermodynamic at 24 h: 1020 µg/mL (≈ 2280 µM)
[14]
  half-life: 1.8 h
[15]
  CLint scaled: 11.5 mL/min/kg
CYP3A4
  inhibition at 10 µM: 12.4%
[16]
  AUC(0-inf): 373 ng·h/mL
[17]
  Tmax: 1.98 min
[18]
  half-life: 2.62 h
[19]
  Cmax: 144 ng/mL
[20]
  half-life: 3.59 h
[21]
  Activity: Non-Toxic
[22]
  Activity: Non-Toxic
[23]
  Activity: Non-Toxic
[24]
  Activity: Non-Toxic
